Tests used:
Type in all cases: cell-based, Human
[1] = test system: HCT116/MUC1(Y46F) cells; test: Cell death after CDDP treatment, HCT116/MUC1(Y46F) cells; settings: CDDP for 72 h
Description: (§1) Cell culture. Human HCT116 colon carcinoma cells (ATCC, Manassas, Va.) were cultured in Dulbecco's modified Eagle's medium/F12 with 10% heat-inactivated fetal bovine serum, 100 units/ml penicillin, […] streptomycin and 2 mM L-glutamine. Cells were treated with EGF (10 ng/ml; Calbiochem-Novabiochem, San Diego, Calif.), HRG (20 ng/ml; Calbiochem-Novabiochem), cisplatin (CDDP; Sigma), etoposide (Sigma), rhTNF-a (Promega, Madison, Wis.), CHX (Sigma) or rhTRAIL (100 ng/ml; Calbiochem-Novabiochem).
(§2) Methods. Experimental procedures and methods were as described in Example 1.

[2] = test system: HCT116/vector cells; test: Apoptosis by analysis of sub-G1 DNA, HCT116/vector cells
Description: Methods. Apoptotic cells were quantified by analysis of sub-G1 DNA and TUNEL staining. To assess sub-G1 DNA content, cells were harvested, washed with PBS, fixed with 80% ethanol, and incubated in PBS containing 20 ng/ml RNase (Roche) for 60 min at 37° C. Cells were then stained with […] propidium iodide (Sigma) for 30 min at room temperature in the dark. DNA content was analyzed by flow cytometry (EPICS XL-MCL, Coulter Corp.). Apoptotic cells with DNA fragmentation were detected by staining with the In Situ cell death detection kit (TUNEL; Roche Applied Science) and visualized by confocal microscopy (ZEISS LSM510). After staining, cells were analyzed by flow cytometry. Other experimental procedures and methods were as described in Example 1.

[3] = test system: cytochrome c; test: Release of mitochondrial cytochrome c to the cytosol (immunoblot), HCT116/vector cells; settings: HCT116/vector cells treated with CDDP
Description: as §1
(§3) Immunoblot analysis. Lysates were prepared from subconfluent cells as described (Li et al., 2001a). Equal amounts of protein were separated by SDS-PAGE and transferred to nitrocellulose membranes. […] The immunocomplexes were detected with horseradish peroxidase-conjugated secondary antibodies and enhanced chemiluminescence (ECL, Amersham Biosciences, Piscataway, N.J.). Intensity of the signals was determined by densitometric scanning. […]

[4] = test system: HCT116/vector cells; test: Cell death after CDDP treatment, HCT116/vector cells; settings: CDDP for 72 h
Description: as §1, §2

[5] = test system: HCT116/MUC1 cells; test: Cell death after CDDP treatment, HCT116/MUC1 cells; settings: CDDP for 72 h, cessation of cell growth
Description: as §1, §2

[6] = test system: MUC1 C-ter; test: Expression of MUC1 C-ter after CHX; settings: CHX treatment
Description: Immunoblot analysis. Lysates were prepared from subconfluent cells as described (Li et al., 2001a). Equal amounts of protein were separated by SDS-PAGE and transferred to nitrocellulose membranes. […] The immunocomplexes were detected with horseradish peroxidase-conjugated secondary antibodies and enhanced chemiluminescence (ECL, Amersham Biosciences, Piscataway, N.J.). Intensity of the signals was determined by densitometric scanning.
Methods. Apoptotic cells were quantified by analysis of sub-G1 DNA and TUNEL staining. […] DNA content was analyzed by flow cytometry (EPICS XL-MCL, Coulter Corp.). Apoptotic cells with DNA fragmentation were detected by staining with the In Situ cell death detection kit (TUNEL; Roche Applied Science) and visualized by confocal microscopy (ZEISS LSM510). After staining, cells were analyzed by flow cytometry. […]

[7] = test system: MUC1 C-ter; test: Mitochondrial localization of MUC1 C-ter in HCT116/MUC1 cells (immunoblot of mitochondrial fractions)
Description: as §1, §3

[8] = test system: MUC1(Y46F) C-ter; test: Mitochondrial localization of MUC1(Y46F) C-ter in HCT116/MUC1(Y46F) cells (immunoblot of mitochondrial fractions)
Description: as §1, §3

[NH2][Pt]([NH2])([Cl])[Cl] [CDDP, cisplatin]
cell death [1]: > 90%
apoptosis (sub-G1 DNA) ([2]; 100 μM CDDP for 24 h): approximately 40%
levels of cytosolic cytochrome c [3]: increased levels of cytosolic cytochrome c
cell death [4]: > 90%
cell death [5]: < 30%

C[C@@H]1C[C@@H]([C@H](O)CC2CC(=O)NC(=O)C2)C(=O)[C@@H](C)C1 [CHX, cycloheximide]
effect on expression of MUC1 C-ter [6]: no apparent effect

EGF: EGF (10 ng/ml; Calbiochem-Novabiochem) (NSDSECPLSHDGYCLHDGVCMYIEALDKYACNCVVGYIGERCQYRDLKWWELR; Epidermal growth factor; UniProt P01133 971-1023, looked up)
effect on mitochondrial targeting of MUC1 C-ter ([7]; EGF 10 ng/ml): little effect
effect on mitochondrial targeting of MUC1 C-ter ([8]; EGF 10 ng/ml): little effect

TNF-α
induction of apoptosis ([2]; 20 ng/ml TNF-α in the presence of 10 ng/ml cycloheximide (CHX), 12 hr): associated with induction of HCT116/vector cell apoptosis
induction of apoptosis ([2]; TNF-α alone): failed to induce apoptosis

heregulin [HRG]
increase in localization of MUC1 C-ter to mitochondria ([7]; HRG 20 ng/ml, 0.5 h, persisted through 3 h): 2.3 fold
effect on mitochondrial localization of MUC1(Y46F) C-ter ([8]; HRG 20 ng/ml): little effect

— patent publication US20070202134A1, “Muc1 Antagonist Enhancement of Death Receptor Ligand-Induced Apoptosis” (priority 2004, published 2007)
